The source of these data is paper PMC5746462 (Journal of medicinal chemistry, 2017).

The structures appear in SMILES notation.

The conditions of data set [1]: male, Swiss Albino, mouse, in vivo, 10 mg/kg.
Another data set can be described thus: in vivo. To be noted: male, Swiss Albino, mouse, po, 10 mg/kg.

As usually defined, the bioavailability is the share of a dose that reaches the circulation, judged against a reference dose that is usually intravenous. A low value points to little systemic uptake. As for `CC(C)(C)n1nc(Oc2cccc(Cl)c2)c2c(N)ncnc21` [Compound 2], in data set [1], the “%F (oral availability)” value was 31%. The compound further yielded a bioavailability in the data set “in vivo” of 25 to 30%.
